Values of other authors in PMC12287436 (Scientific Reports, 2025).
Where a name gives a salt, the structure may show the parent alone.

Settings: rabbits; 2% instillation dose

CCN[C@H]1C[C@H](C)S(=O)(=O)c2sc(S(N)(=O)=O)cc21 [dorzolamide hydrochloride]
Retinal concentration: 2.8 µM
